Where a name gives a salt, the structure may show the parent alone.
Columns and labels:
[1] = molecular target: T1, isolated trachea of a guinea pig (Cavia porcellus, UniProt Q8K4Z4); test: pA2 measurement of beta-blocking activity on the isolated trachea of a guinea pig; assay type: cell-based
T1 construct: isolated trachea of a guinea pig; from tissue; host or cells: guinea pig isolated trachea
Procedure: (§1) The PA2 is the co-logarithm of the concentration of antagonist in the presence of which it requires twice as much agonist as in its absence in order to achieve the same effect; see, on this subject: Calculation of the PAx, Technical Leaflet No. 16, J. Pharmacol. Paris 1971, 2, 3, 373-380. The PA2 was measured on the isolated auricle of a guinea pig and on the isolated trachea of a guinea pig. The product used by way of comparison is the following compound: [drawing 23]

[2] = molecular target: T2, isolated auricle of a guinea pig (Cavia porcellus); test: pA2 measurement of beta-blocking activity on the isolated auricle of a guinea pig; assay type: cell-based; conditions: chronotropic
T2 construct: isolated auricle of a guinea pig; from tissue; host or cells: guinea pig isolated auricle (atrium)
Procedure: as §1

[3] = prior art; cited from earlier work
[4] = molecular target: T3, isolated trachea of a guinea pig (Cavia porcellus); test: pA2 measurement of beta-blocking activity on the isolated trachea of a guinea pig; assay type: cell-based
T3 construct: isolated trachea of a guinea pig; from tissue; host or cells: guinea pig isolated trachea
Procedure: as §1

[5] = molecular target: T4, isolated auricle of a guinea pig (Cavia porcellus, UniProt H0W3H1); test: pA2 measurement of beta-blocking activity on the isolated auricle of a guinea pig; assay type: cell-based; conditions: inotropic
T4 construct: isolated auricle of a guinea pig; from tissue; host or cells: guinea pig isolated auricle (atrium)
Procedure: as §1

T2 sequence (H0W3H1 1-470): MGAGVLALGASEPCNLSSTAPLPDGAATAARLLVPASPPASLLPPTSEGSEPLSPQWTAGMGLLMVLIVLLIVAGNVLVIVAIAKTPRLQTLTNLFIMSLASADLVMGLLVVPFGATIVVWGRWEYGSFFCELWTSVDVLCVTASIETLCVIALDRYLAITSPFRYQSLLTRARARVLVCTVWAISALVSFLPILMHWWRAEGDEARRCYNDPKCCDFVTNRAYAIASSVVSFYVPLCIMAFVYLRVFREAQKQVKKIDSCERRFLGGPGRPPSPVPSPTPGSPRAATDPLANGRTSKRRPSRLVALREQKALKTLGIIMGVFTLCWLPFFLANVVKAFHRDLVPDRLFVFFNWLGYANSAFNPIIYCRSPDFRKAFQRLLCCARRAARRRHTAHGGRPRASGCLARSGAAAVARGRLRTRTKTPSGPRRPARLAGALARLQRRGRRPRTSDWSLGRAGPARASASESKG
T4 sequence (H0W3H1 1-470): as above
T1 sequence (Q8K4Z4 whole entry): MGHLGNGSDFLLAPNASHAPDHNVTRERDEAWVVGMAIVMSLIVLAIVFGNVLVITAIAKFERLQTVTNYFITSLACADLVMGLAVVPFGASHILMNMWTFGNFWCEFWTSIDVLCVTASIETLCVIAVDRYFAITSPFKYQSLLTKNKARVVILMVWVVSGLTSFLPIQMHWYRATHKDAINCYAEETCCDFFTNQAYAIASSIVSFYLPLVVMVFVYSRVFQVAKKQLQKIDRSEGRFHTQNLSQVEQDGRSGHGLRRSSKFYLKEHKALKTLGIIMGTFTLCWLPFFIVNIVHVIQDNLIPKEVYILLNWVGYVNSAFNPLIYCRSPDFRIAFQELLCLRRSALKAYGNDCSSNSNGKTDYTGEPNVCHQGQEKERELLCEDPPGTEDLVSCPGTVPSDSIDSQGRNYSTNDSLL
T3 sequence (Q8K4Z4 whole entry): as above

CC(C)(C)NCC(O)COCC1CC1 (stereo not drawn) [compound 3, 1-N-tert.-Butylamino-3-cyclopropylmethoxy-propan-2-ol]
Trachea pA2 [1]: 6.23 | Kb [2]: 79.4 nM

CC(C)(C)NC[C@H](O)COc1nsnc1N1CCOCC1 [timolol maleate]
undesirable secondary effects in treatment of glaucomas [3]: bronchial disorders (asthma) or cardiovascular disorders (orthostatic hypotension and slowing down of the pulse rate)

C=CC(C)(C)OCC(O)CNC(C)(C)C (stereo not drawn) [Comparison, reference compound]
Trachea pA2 [1]: 4.96

CC(=NOCC(O)CNC(C)(C)C)C1CC1 (stereo not drawn) [Compound No. 1, 1-N-tert.-Butylamino-3-(cyclopropyl-methylketoneoximino)-propan-2-ol]
Kb [4]: 0.912 nM | Kb [5]: 1 nM | Kb [2]: 2 nM

CC(C)(C)NCC(O)CON=C(C1CC1)C1CC1 (stereo not drawn) [Compound No. 2, 1-N-tert.-Butylamino-3-(dicyclopropyl-ketoneoximino)-propan-2-ol]
Kb [5]: 7.24 nM | Kb [2]: 5.01 nM
